US5965106A, “In vivo binding pair pretargeting” (PerImmune Holdings, Inc., priority 1995, dated 1999)

Legend:
[1] = Biodistribution and clearance in rabbits; format: in vivo, New Zealand white rabbit; conditions: rabbit
Description: In order to compare the biodistribution and clearance of ^111 In-DTPA-MTX with that of ^111 In-DTPA in the New Zealand white rabbit, approximately 140-190 μg and 120 μCi of each agent is administered to three animals each by intravenous injection in the central ear […]. One animal of each group is sacrificed at 1, 4 and 24 hours after injection.

[2] = Biodistribution and clearance in nude mice; format: in vivo, nude mouse
Description: In order to compare the biodistribution and clearance of ^111 In-DTPA-MTX with that of ^111 In-DTPA in the nude mouse, ^111 In-DTPA-MTX is administered at a dose of 9 μg and 8 μCi and ^111 In-DTPA is administered at a dose of 9 μg and 7 μCi by intravenous injection into the lateral tail vein. Animals are sacrificed a 1, 2, 4 and 24 hours after injection in groups of three animals per time point. […] In addition, there is low uptake of the MTX conjugate in the liver which is not seen with the labeled DTPA.

[3] = Whole body clearance from athymic mice; format: in vivo, athymic nu/nu mice; conditions: 50 uCi, lateral tail vein, 0.5-24 hours
Description: Clearance of the ^111 In-DTPA-MTX at a rate similar to that of ^111 In-DTPA would indicate that rapid body clearance of the portion of the conjugate not bound in tumor tissue by antibody-DHFR may be expected. Such rapid clearance would ensure that nearly all the unbound radionuclide would decay outside the body.
Three athymic nu/nu mice were injected via the lateral tail vein with 50 uCi ^111 In-DTPA-MTX in 0.5 mL 10% normal mouse serum in phosphate buffered normal saline. A second group of three animals received 50 uCi ^111 In-DTPA by the same route. All animal were examined for whole body retention of In-111 in a Capintec dose calibrator at 0.5, 1, 2, 3, 4, and 24 hours after injection.

[4] = in vivo; cited from earlier work
[5] = test system: wild-type recombinant human dihydrofolate reductase (rhDHFR); conditions: noncovalent binding; cited from earlier work
16.88 bound rhDHFR = assay: Inhibition of DHFR bound in an antibody-DHFR complex by MTX and DTPA-MTX, versus native rhDHFR; conditions: 16.88-DHFR titrated to activity of native rhDHFR
rhDHFR [6] = assay: Inhibition of rhDHFR by MTX and DTPA-MTX (dihydrofolate reduction, A340); format: biochemical, human; conditions: 1×10^-8 M and 5×10^-9 M inhibitor concentration, 22° C., pH 7.5
Description: Dihydrofolate reductase concentrations of 10^-7 -10^-9 M are easily assayed by monitoring the time dependent decrease in A340 caused by the reduction of dihydrofolate and the oxidation of the cofactor nicotinadenine dinucleotide phosphate (NADPH). The assay is performed at 22° C. (room temperature) in 50 mM Tris, pH 7.5 and 60 μM NADPH and initiated by adding dihydrofolate to 50 μM. One enzyme unit is equivalent to the amount of enzyme required to reduce 1 μmole of dihydrofolate to 1 μmole tetrahydrofolate in 1 min. at 22° C. and can be quantitated using an extinction coefficient of 12,300 M^-1 cm^-1.
The inhibition rate of DHFR by MTX and its derivatives is determined by the decrease in the conversion of dihydrofolate to tetrahydrofolate. […] Derivatives of methotrexate are evaluated by comparing inhibition rates to the inhibition rate of MTX at equivalent concentrations.
The effects of modifying methotrexate with DPTA were unknown and required a comparison of the activity of equimolar concentrations of methotrexate and DTPA-MTX. […] The inhibition of rhDHFR by MTX and DTPA-MTX were then measured under the assay conditions mentioned earlier and compared.

rhDHFR [7] = assay: Stability of conjugated enzyme: percent DHFR activity remaining; format: physicochemical, human
Description: A 10-fold molar excess of the photoaffinity analog was mixed with the enzyme, and the volume adjusted to a protein concentration of 1 mg/ml using 10 mM Tris-HCl buffer (pH 7.5). The mixture was kept in ice at a 10 cm distance from the light source while photoactivation was carried out for 5 minutes with occasional stirring. An aliquot was assayed for DHFR activity before and after photoactivation. The NADP^+ -linked enzyme was purified by gel-filtration using 10 mM sodium phosphate buffer, pH 7.2, containing 20 mM NaCl. Fractions were assayed for DHFR activity before they were pooled for protein estimation (using Pierce BCA reagent) and determination of incorporation of NADP^+ moieties per enzyme molecule.
[…] Percent stability was calculated by comparing with a sample kept at 4° C.

O=C([O-])CN(CCN(CC(=O)[O-])CC(=O)[O-])CCN(CC(=O)[O-])CC(=O)[O-].[111In+3].[H+].[H+] [^111 In-DTPA]
kidney activity levels ([1]; i.v.): Low activity levels
urine activity (clearance via urine) ([1]; i.v. 140-190 μg, 120 μCi): high urine activity levels
injected dose per gram (ml) remaining in the serum ([2]; 1 hour post injection, i.v., 9 μg): less than 0.2%
kidney activity (clearance via urine) ([2]; nude mouse, all time points 1-24 hours): activity in the kidney at all time points
liver uptake ([2]; nude mouse, i.v.): not seen
whole body clearance [3]: clear from the mice at similar rates
clearance from the circulation [4]: clear rapidly from the circulation
retention in normal tissues [4]: little retention in normal tissues

NC(=O)C1=CN([C@@H]2O[C@H](COP(=O)(O)OP(=O)(O)OC[C@H]3O[C@@H](n4cnc5c(N)ncnc54)[C@H](OP(=O)(O)O)[C@@H]3O)[C@@H](O)[C@H]2O)C=CC1 [NADPH, nicotinadenine dinucleotide phosphate]
protection of rhDHFR from thermal denaturation [5]: capable of protecting

CN(Cc1cnc2nc(N)nc(N)c2n1)c1ccc(C(=O)N[C@@H](CCC(=O)NNC(=O)CN(CCN(CCN(CC(=O)O)CC(=O)O)CC(=O)O)CC(=O)O)C(=O)O)cc1 [DTPA-MTX]
inhibition of/binding to 16.88 bound rhDHFR compared with equivalent activity of native rhDHFR (16.88 bound rhDHFR): confirmed the methotrexate data
inhibitory effect on dihydrofolate reduction compared with MTX (rhDHFR [6]): virtually identical to MTX inhibition

NC(=O)c1ccc[n+]([C@@H]2O[C@H](COP(=O)([O-])OP(=O)(O)OC[C@H]3O[C@@H](n4cnc5c(N)ncnc54)[C@H](OP(=O)(O)O)[C@@H]3O)[C@@H](O)[C@H]2O)c1 [NADP]
protection of rhDHFR from thermal denaturation [5]: capable of protecting

B1: ANPAP-NADP^+ -rhDHFR: DHFR stabilized through covalent conjugation with a photoaffinity analog of NADP^+ (ANPAP-NADP) followed by photoactivation (conjugate, UniProt P00374 1-187, looked up)
Dihydrofolate reductase: MVGSLNCIVAVSQNMGIGKNGDLPWPPLRNEFRYFQRMTTTSSVEGKQNLVIMGKKTWFSIPEKNRPLKGRINLVLSRELKEPPQGAHFLSRSLDDALKLTEQPELANKVDMVWIVGGSSVYKEAMNHPGHLKLFVTRIMQDFESDTFFPEIDLEKYKLLPEYPGVLSDVQEEKGIKYKFEVYEKND
modifications: photo-crosslinked ANPAP-NADP+ analog
Stability: percent enzyme activity remaining after incubation (rhDHFR [7]; 0 minutes, 37° C.): 100%
Stability: percent enzyme activity remaining after incubation (rhDHFR [7]; 60 minutes, 37° C.): 82%
Stability: percent enzyme activity remaining after incubation (rhDHFR [7]; 120 minutes, 37° C.): 78%
Stability: percent enzyme activity remaining after incubation (rhDHFR [7]; 180 minutes, 37° C.): 78%
Stability: percent enzyme activity remaining after incubation (rhDHFR [7]; 1080 minutes, 23° C.): 67%
Percent remaining activity following photoactivation (rhDHFR [7]; photoactivation time 5 minutes): 100%

B2: rhDHFR: recombinant human dihydrofolate reductase (protein, UniProt P00374 1-187, looked up)
Dihydrofolate reductase: B1 Dihydrofolate reductase
Stability: percent enzyme activity remaining after incubation (rhDHFR [7]; 0 minutes, 37° C.): 100%
Stability: percent enzyme activity remaining after incubation (rhDHFR [7]; 30 minutes, 37° C.): 18%
Stability: percent enzyme activity remaining after incubation (rhDHFR [7]; 60 minutes, 37° C.): 10%
